Reference: patent US8822206B2, “Device for high-throughput stimulation, immunostaining, and visualization of single cells” (The Johns Hopkins University, priority 2005, dated 2014)

Test system: NIH3T3 mouse fibroblasts
Experiment: Cell stimulation and anti-p65 immunofluorescence staining in the microfluidic device
Format: cell-based
Conditions: NIH3T3 mouse fibroblasts in device and on control slides; 10 ng/ml mouse TNF-alpha in media, 10 minutes stimulation
Source text: The device was fabricated as described in Example 1. The device was filled with sterile 0.1% gelatin with all of the valves open through an inlet port 11 to coat the parallel fluid channels to promote cell adhesion. Valves were primed with filtered, distilled water. Alternatively, filling may be done with the ports closed as trapped air can be pushed out of the gas-permeable PDMS with hydrostatic pressure. The device was flushed with […] the coating agent. Well-separated NIH3T3 mouse fibroblasts at a concentration of about 9 million cells per ml were introduced into the parallel fluid channels through an inlet port and the device was transferred to a standard 5% CO2, 37° C. cell culture incubator for 3-4 hours to allow the cells to adhere to the glass bottom of the parallel fluid channels.
Using the multiplexer to control flow through the reaction units, a selection of valves were closed to allow for exposure of only a portion of the cells to a stimulant. A syringe containing a solution of 10 ng/ml of mouse TNF-alpha in media was attached to an inlet port, and cells were stimulated, or not, for 10 minutes. […] After secondary antibody staining and washing with DPBS, cells were overlaid with mounting media or other antifade agent to minimize photobleaching, and imaged using fluorescence microscopy. […]

## TNF-alpha
  localization of p65 (anti-p65 immunofluorescence): localization of p65 to the nucleus
